The test system of assay [1] is PmHS-D. Description: Radiochemical incorporation assay, co-polymerization with UDP-[3H]GlcA, paper chromatography. Format: biochemical, Pasteurella multocida. As to conditions: GAG synthase PmHS-D 1 mg/ml; test UDP-sugar 0.5 mM; UDP-[3H]GlcA 0.08 mM; 30° C., 5.5 hours. The procedure: (§1) For polymerization tests, for example, the various oligosaccharide acceptors were incubated with two types of UDP-sugars at 2 mM as noted under the same conditions as the single sugar extensions above. Radioactive UDP-sugars (e.g., UDP-[^3H]GlcA) were used to monitor co-polymerization reactions with the thiosugar-donors separated by various modes of chromatography. The general reaction catalyzed by a GAG synthase in these tests is:
(§2) n UDP-4S-HexNAc+n UDP-[^3H]GlcA+acceptor-->2n UDP+[4S-HexNAc+UDP-[^3H]GlcA]n-acceptor
(§3) where HexNAc is GlcNAc, GalNAc, or another sugar or sugar derivative. Reactions used radioactive UDP-GlcA (0.08 mM final; 0.1 microCi ^3H) and the authentic UDP-sugars (a positive control) or their thio-analogs (0.5 mM final) with a GAG synthase (1 mg/ml) in neutral pH buffer (50 mM Hepes, pH 7.2) with divalent cation (1 mM Mn^2+) at 30° C. for 5.5 hours (note: the HA [PmHAS] and chondroitin [PmCS] synthase reactions also employed the stabilizer 1M ethylene glycol). The reactions were quenched (2% SDS detergent), and analyzed by paper chromatography. The small radioactive UDP-sugar precursors are polymerized by the synthase, resulting in larger products (stay at the origin of the paper; any unused precursor migrates down the paper); such data is shown in Table 3.
(§4) Chimeric enzymes that included differing portions of both PmHS1 (GenBank Accession #AAL84702) and PmHS2 (GenBank Accession #AAQ55109) were created and tested for their ability to synthesize polymers from the sulfur-containing UDP-4-S-GlcNAc. As shown below in Table 2, the corresponding numbers describe the original residue numbers of the source parental synthase sequence as noted.
(§5) Overall, the Chimeric B construct (PmHS-B) appears to be the best catalyst tested thus far for incorporating 4-S-GlcNAc into a heparosan-like S-linked polymer.

Assay [2] relates to PmHS-G. The description is as above. In kind it is biochemical, Pasteurella multocida. Particulars: GAG synthase PmHS-G 1 mg/ml; test UDP-sugar 0.5 mM; UDP-[3H]GlcA 0.08 mM; 30° C., 5.5 hours; * = significant thio-sugar incorporation into polymer. The procedure: as §1, §2, §3, §4, §5
Assay [3] has as its system PmHS-B. The description is as above. In kind it is biochemical, Pasteurella multocida. As to conditions: GAG synthase PmHS-B 1 mg/ml; test UDP-sugar 0.5 mM; UDP-[3H]GlcA 0.08 mM; 30° C., 5.5 hours; * = significant thio-sugar incorporation into polymer. The protocol:
as §1, §2, §3, §4, §5

In assay [4] the test system is PmHS-I. The assay is described as above. Format: biochemical, Pasteurella multocida. As to conditions: GAG synthase PmHS-I 1 mg/ml; test UDP-sugar 0.5 mM; UDP-[3H]GlcA 0.08 mM; 30° C., 5.5 hours. The protocol:
as §1, §2, §3, §4, §5

Assay [5] concerns PmHS-J. The description is as above. Format: biochemical, Pasteurella multocida. Particulars: GAG synthase PmHS-J 1 mg/ml; test UDP-sugar 0.5 mM; UDP-[3H]GlcA 0.08 mM; 30° C., 5.5 hours; * = significant thio-sugar incorporation into polymer. The protocol:
as §1, §2, §3, §4, §5

In assay [6] the target is T1, bacterial heparin lyase III (Pedobacter heparinus, UniProt Q59289).
T1 sequence (Q59289 25-659): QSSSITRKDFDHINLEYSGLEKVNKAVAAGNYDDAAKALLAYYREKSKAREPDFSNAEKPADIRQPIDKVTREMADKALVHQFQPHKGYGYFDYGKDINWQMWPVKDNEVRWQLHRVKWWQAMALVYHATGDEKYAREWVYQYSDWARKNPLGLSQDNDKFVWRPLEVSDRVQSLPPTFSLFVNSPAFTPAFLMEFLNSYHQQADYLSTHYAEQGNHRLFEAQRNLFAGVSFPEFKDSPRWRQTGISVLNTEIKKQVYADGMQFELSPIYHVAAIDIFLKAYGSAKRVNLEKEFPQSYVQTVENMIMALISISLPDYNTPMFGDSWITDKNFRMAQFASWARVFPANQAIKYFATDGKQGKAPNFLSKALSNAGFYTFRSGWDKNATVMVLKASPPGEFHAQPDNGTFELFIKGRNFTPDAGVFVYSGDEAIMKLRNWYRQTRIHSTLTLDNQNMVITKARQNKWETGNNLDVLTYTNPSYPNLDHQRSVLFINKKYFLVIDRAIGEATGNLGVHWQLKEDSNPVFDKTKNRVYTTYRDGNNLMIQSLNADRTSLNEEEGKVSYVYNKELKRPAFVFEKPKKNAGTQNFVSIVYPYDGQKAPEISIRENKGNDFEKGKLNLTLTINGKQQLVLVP
Briefly: Heparin lyase III challenge of HEP polymers, PAGE analysis. Format: biochemical. Particulars: 50 mM ammonium acetate, pH 7.0, 20 h at 30° C., loss of signal on PAGE (FIG. 8). The procedure:
Polymerization reactions and PAGE analysis. HEP trisaccharide (30 ng/ul) was incubated with 10 mM […] and either 10 mM 4-thio- or authentic UDP-GlcNAc, with PmHS-G (0.5 mg/ml), 1 mM MnCl2, and 50 mM Hepes, pH 7.2, for 20 h at 30° C. The reactions were then diluted in water and split into two aliquots, (i) a untreated control (−) and (ii) a heparin lyase III treated in 50 mM ammonium acetate, pH 7.0, for 20 h at 30° C. (+). The samples were then analyzed on a 6% 1×TBE PAGE (250 V, 15 min) and stained with 0.05% Alcian Blue followed by silver staining (BioRad Silver Stain kit).
Polymerization reactions producing longer HEP chains with either native (4-OH) or analog (4-SH) donors were analyzed for size on PAGE gels and stained. The gel depicts the polysaccharides made with both natural UDP-donors (native HEP) or by using the thio-GlcNAc analog and UDP-GlcA to form Hemi-A HEP.
Both polymers were challenged with bacterial heparin lyase III (+lanes). […] This finding is predicted as the enzyme digests the C—O—C glycosidic link that still exists in both types of HEP species.

Assay [7] has as its system PmHS-A. Briefly: Radiochemical incorporation assay, co-polymerization with UDP-[3H]GlcA, paper chromatography. In kind it is biochemical, Pasteurella multocida. Particulars: GAG synthase PmHS-A 1 mg/ml; test UDP-sugar 0.5 mM; UDP-[3H]GlcA 0.08 mM; 30° C., 5.5 hours. The protocol: as §1, §2, §3, §4, §5

In the case of `CC(=O)N[C@H]1[C@@H](OP(=O)(O)OP(=O)(O)OC[C@H]2O[C@@H](n3ccc(=O)[nH]c3=O)[C@H](O)[C@@H]2O)O[C@H](CO)[C@@H](S)[C@@H]1O` [UDP-4S-GlcNAc, UDP-4-SH-GlcNAc], the “3H radioactivity at the origin (dpm)” value in assay [1] was 42 dpm; in assay [2], 510 * dpm; in assay [3] it was 800 * dpm; in assay [4] it was 42 dpm; in assay [5], 480 * dpm.

In the case of “(-4-GlcA-1-beta-S-4-GlcNAc-1-alpha-O)n [Hemi-A HEP]”, the “Susceptibility to digestion by bacterial heparin lyase” value in assay [6] is listed as “sensitive to digestion”.

Consider `CC(=O)N[C@H]1[C@@H](OP(=O)(O)OP(=O)(O)OC[C@H]2O[C@@H](n3ccc(=O)[nH]c3=O)[C@H](O)[C@@H]2O)O[C@H](CO)[C@@H](O)[C@@H]1O` [UDP-GlcNAc, UDP-N-acetylglucosamine], for which the “3H radioactivity at the origin (dpm)” value in assay [1] is 4,140 dpm; in assay [7], 9,230 dpm; in assay [2], 8,900 dpm; in assay [3], 9,020 dpm; in assay [4], 3,900 dpm; in assay [5], 12,200 dpm.

The values are drawn from patent US20210230313A1, “SULFUR-CONTAINING GLYCANS AND POLYSACCHARIDES AND METHODS OF CHEMOENZYMATIC SYNTHESIS THEREOF” (priority 2018, published 2021).
